The target in one series is TRKa (Homo sapiens (Human), UniProt P04629). Put plainly: Kinase inhibitory activity (Caliper mobility shift), TRKa. The format is biochemical. As for the experimental part:
(§1) […] (Shanghai) Co., Ltd. was commissioned to complete the testing example. […] 3.1 A tested compound was accurately weighed and dissolved in 100% DMSO to prepare into a 10 mM solution. […] 3.2.3 A kinase solution of 2.5 times final concentration was prepared with 1×kinase buffer. […] 3.2.5 The reaction plate was shaken and mixed evenly, and then incubated at room temperature for 10 minutes. 3.2.6 Mixed solutions of ATP and kinase substrate 22 of 5 times and 3 times final concentrations were prepared with 1×kinase buffer. 3.2.7 15 μL of mixed solution of ATP and substrate of 5 times or 3 times final concentration was added. 3.2.8 The 384-well plate was centrifuged at 1,000 rpm for 30 seconds, shaken and mixed evenly, and then incubated at room temperature for corresponding time. 3.2.9 The kinase reaction was terminated. 3.2.10 A conversion rate was read by the microplate reader Caliper EZ Reader. Calculation Formula Inhibition rate %=(conversion rate % maximum-conversion rate % sample)/(conversion rate % maximum-conversion rate % minimum)×100 wherein the conversion rate % sample was: a reading number of a conversion rate of a sample; the conversion rate % minimum was: an average value of the negative control well, which represented a reading number of a conversion rate without an enzyme activity well; and the conversion rate % maximum was: an average value of a ratio of the positive control well, which represented a reading number of a conversion rate without a compound inhibition well.

Another series has as its target TRKA(G595R) (Homo sapiens (Human), UniProt P04629, G595R). Put plainly: Kinase inhibitory activity (Caliper mobility shift), TRKA(G595R). The format is biochemical. As for the experimental part: as §1
The next series concerns the target TRKC(G623R) (Homo sapiens (Human), UniProt Q16288, G623R). Put plainly: Kinase inhibitory activity (Caliper mobility shift), TRKC(G623R). The format is biochemical. As for the experimental part: Sundia Meditech (Shanghai) Co., Ltd. was commissioned to complete the testing example.
3.1 A tested compound was accurately weighed and dissolved in 100% DMSO to prepare into a 10 mM solution.
250 nL of the compound of 100 times final concentration was transferred to a reaction plate OptiPlate-384F by a dispenser Echo 550.
3.2.3 A kinase solution of 2.5 times final concentration was prepared with 1×kinase buffer.
3.2.4 10 μL of kinase solution of 2.5 times final concentration was added into a compound well and a positive control well respectively; and 10 μL of 1×kinase buffer was added into a negative control well.
3.2.5 The reaction plate was shaken and mixed evenly, and then incubated at room temperature for 10 minutes.
3.2.6 Mixed solutions of ATP and kinase substrate 22 of 5 times and 3 times final concentrations were prepared with 1×kinase buffer.
3.2.7 15 μL of mixed solution of ATP and substrate of 5 times or 3 times final concentration was added.
3.2.8 The 384-well plate was centrifuged at 1,000 rpm for 30 seconds, shaken and mixed evenly, and then incubated at room temperature for corresponding time.
3.2.9 The kinase reaction was terminated.
3.2.10 A conversion rate was read by the microplate reader Caliper EZ Reader.
Calculation Formula Inhibition rate %=(conversion rate % maximum−conversion rate % sample)/(conversion rate % maximum−conversion rate % minimum)×100
wherein the conversion rate % sample was: a reading number of a conversion rate of a sample; the conversion rate % minimum was: an average value of the negative control well, which represented a reading number of a conversion rate without an enzyme activity well; and the conversion rate % maximum was: an average value of a ratio of the positive control well, which represented a reading number of a conversion rate without a compound inhibition well.
Fitting of dose-effect curve: a log value of concentration was used as an X axis, a percentage inhibition rate was used as a Y axis, and the dose-effect curve was fitted by a log (inhibitor) vs. response-variable slope of the analysis software GraphPad Prism 5 (four-parameter model fitting), so as to obtain an IC50 value of each compound on enzyme activity.

The next series has as its system Ba/F3 EVT6-NTRK3-G623R. Description: In-vitro cell viability (CTG), NTRK mutant cells. In kind it is cell-based. To be noted: Mus musculus, read-out: Ba/F3 EVT6-NTRK3-G623R IC50. As for the experimental part:
(§2) Hefei Precedo Biomedical Technology Co., Ltd. was commissioned to complete the testing example, and NTRK mutant cells used were constructed by this company.
(§3) Inhibitory effects of the compound of the present application on growth of three NTRK mutant cells (Ba/F3 LMNA-NTRK1-G667C, Ba/F3 EVT6-NTRK3-G623R and Ba/F3 LMNA-NTRK1-G595R) were measured.
(§4) Cells in logarithmic growth phase were collected and counted by a blood platelet counter, a cell concentration was adjusted to 3 to 6×10^4 cell/mL, 90 μL of cell suspension was added into a 96-well plate, and cells in the 96-well plate were cultured at 37° C. under 5% CO2 and 95% humidity overnight.
(§5) The to-be-tested compound was prepared into a 10 times drug solution in a medium containing 1% DMSO, with […] and the drug solution was diluted by 3 times in sequence to obtain drug solutions with 9 concentrations in total. […] 10 μL of prepared drug solution was added into each well of the 96-well plate in which the cells were inoculated. Then, 90 μL of medium containing 1% DMSO was added to obtain a drug solution with a highest concentration of 1 μM, and the drug solution was diluted by 3 times in sequence to obtain drug solutions with 9 concentrations in total. A final concentration of DMSO in each well was 0.1%, and three multiple wells were provided for the drug of each concentration. The cells in the 96-well plate in which the drug has been added were cultured at 37° C. under 5% CO2 and 95% humidity for 72 hours, and then subjected to CTG analysis.
(§6) An equal volume of CTG solution was added into each well, the 96-well plate was placed at room temperature for 20 minutes to stabilize a luminescence signal, and a luminescence value was read.
(§7) Data was analyzed by GraphPad Prism 7.0 software, and fitted by nonlinear S-curve regression to obtain a dose-effect curve, from which an IC50 value was calculated. Cell survival rate (%)=(Lum to-be-tested drug−Lum medium control)/(Lum cell control−Lum medium control)×100%.

Another series concerns Ba/F3 LMNA-NTRK1-G595R. Put plainly: In-vitro cell viability (CTG), NTRK mutant cells. The format is cell-based. The settings on record: Mus musculus, read-out: Ba/F3 LMNA-NTRK1-G595R IC50. As for the experimental part:
as §2, §3, §4, §5, §6, §7

The test system of the next series is Ba/F3 LMNA-NTRK1-G667C. Put plainly: In-vitro cell viability (CTG), NTRK mutant cells. The format is cell-based. To be noted: Mus musculus, read-out: Ba/F3 LMNA-NTRK1-G667C IC50. As for the experimental part:
as §2, §3, §4, §5, §6, §7

A short description of series [1]: Stability test in liver microsomes, human. The settings on record: for half-life at 1 μM: 0.5 mg/mL. In kind it is in vitro ADME. As for the experimental part: (§8) A stability of the compound of the present application in liver microsomes of human, rat and mouse was measured.
(§9) 3.1 A buffer and a liver microsome were prepared into an incubation solution according to the following table:
(§10) 3.2 The following two experiments were carried out respectively: a) incubation system added with coenzyme factor NADPH: 25 μL of NADPH (10 mM) was added into an incubation solution (mainly comprising a liver microsome and a phosphate buffer), so that final concentrations of the liver microsome and the NADPH were 0.5 mg/mL and […] respectively; and b) incubation system without coenzyme factor NADPH: 25 μL of phosphate buffer (100 mM) was added into the incubation solution, so that the final concentration of the liver microsome was 0.5 mg/mL. The incubation systems above were preheated at 37° C. for 10 minutes respectively.
(§11) 3.3 2.5 μL of positive control compound or a tested compound solution (100 μM) was added into the incubation systems described in “step 3.2” above respectively for reaction, and the positive control compound was verapamil (purchased from Sigma), so that a final concentration of the tested compound of the present application or the positive control compound was 1 μM. The incubation solution added with the compound was incubated in water at 37° C. in batches.
(§12) 3.4 30 μL of aliquot was taken from a reaction solution after 0.5 minute, 5 minutes, 15 minutes, 30 minutes and 45 minutes respectively, and the reaction was terminated by adding 5 times volume of cold acetonitrile containing 200 nM caffeine and 100 nM tolbutamide. The aliquot was centrifuged at a gravity acceleration of 3,220 g for 40 minutes, and 100 μL of supernatant was mixed with 100 μL of ultrapure water, and then used for LC-MS/MS analysis.
(§13) A peak area was determined by an extracted ion chromatogram. A slope value k was determined by linear regression of a remaining percentage of a parent drug relative to […] an incubation time curve.
(§14) In-vitro half-life periods (t1/2) were respectively calculated and determined according to the slope value, and an average value of the in-vitro half-life periods was converted into an in-vitro intrinsic clearance rate (CLint, represented by μL/min/mg protein).
In general terms: Liver microsomes are a subcellular fraction often used to study metabolism.

Series [2] can be described thus: Stability test in liver microsomes, rat. In kind it is in vitro ADME. The settings on record: for half-life at 1 μM: 0.5 mg/mL. As for the experimental part: as §8, §9, §10, §11, §12, §13, §14
Series [3] in a line: Stability test in liver microsomes, mouse. The format is in vitro ADME. The settings on record: for half-life at 1 μM: 0.5 mg/mL. As for the experimental part:
as §8, §9, §10, §11, §12, §13, §14

SMILES strings stand for the structures. Like-named read-outs stand apart in the source and are kept apart here. Bounds are passed on as bounds.

This note sets out measurements from patent publication US12428433B2, “Fluorine-containing heterocyclic derivatives with macrocyclic structure and use thereof” (ScinnoHub Pharmaceutical Co., Ltd, priority 2019, dated 2025).

TRKa, sequence (P04629 33-796): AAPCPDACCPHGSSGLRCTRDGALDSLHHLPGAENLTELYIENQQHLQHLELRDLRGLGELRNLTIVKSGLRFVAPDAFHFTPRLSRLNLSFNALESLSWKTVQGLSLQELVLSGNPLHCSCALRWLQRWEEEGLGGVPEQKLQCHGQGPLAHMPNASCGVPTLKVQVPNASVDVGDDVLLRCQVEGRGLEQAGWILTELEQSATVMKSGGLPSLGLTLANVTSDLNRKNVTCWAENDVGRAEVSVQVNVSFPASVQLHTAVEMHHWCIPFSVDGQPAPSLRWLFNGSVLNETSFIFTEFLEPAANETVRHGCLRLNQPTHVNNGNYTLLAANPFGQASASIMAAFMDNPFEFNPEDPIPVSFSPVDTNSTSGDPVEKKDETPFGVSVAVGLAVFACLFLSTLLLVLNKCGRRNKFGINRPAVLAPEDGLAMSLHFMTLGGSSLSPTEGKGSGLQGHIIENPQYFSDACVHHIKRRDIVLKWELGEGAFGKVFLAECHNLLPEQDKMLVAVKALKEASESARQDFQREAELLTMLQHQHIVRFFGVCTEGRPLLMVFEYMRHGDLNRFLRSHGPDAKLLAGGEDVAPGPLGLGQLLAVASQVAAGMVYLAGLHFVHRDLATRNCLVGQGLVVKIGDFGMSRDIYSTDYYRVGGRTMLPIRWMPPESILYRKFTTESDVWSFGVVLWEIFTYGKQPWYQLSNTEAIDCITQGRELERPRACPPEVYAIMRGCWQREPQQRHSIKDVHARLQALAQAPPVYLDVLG
TRKA(G595R), sequence (P04629 33-796 G595R): as the sequence (P04629 33-796) above, with G563R counted along it
TRKC(G623R), sequence (Q16288 32-839 G623R): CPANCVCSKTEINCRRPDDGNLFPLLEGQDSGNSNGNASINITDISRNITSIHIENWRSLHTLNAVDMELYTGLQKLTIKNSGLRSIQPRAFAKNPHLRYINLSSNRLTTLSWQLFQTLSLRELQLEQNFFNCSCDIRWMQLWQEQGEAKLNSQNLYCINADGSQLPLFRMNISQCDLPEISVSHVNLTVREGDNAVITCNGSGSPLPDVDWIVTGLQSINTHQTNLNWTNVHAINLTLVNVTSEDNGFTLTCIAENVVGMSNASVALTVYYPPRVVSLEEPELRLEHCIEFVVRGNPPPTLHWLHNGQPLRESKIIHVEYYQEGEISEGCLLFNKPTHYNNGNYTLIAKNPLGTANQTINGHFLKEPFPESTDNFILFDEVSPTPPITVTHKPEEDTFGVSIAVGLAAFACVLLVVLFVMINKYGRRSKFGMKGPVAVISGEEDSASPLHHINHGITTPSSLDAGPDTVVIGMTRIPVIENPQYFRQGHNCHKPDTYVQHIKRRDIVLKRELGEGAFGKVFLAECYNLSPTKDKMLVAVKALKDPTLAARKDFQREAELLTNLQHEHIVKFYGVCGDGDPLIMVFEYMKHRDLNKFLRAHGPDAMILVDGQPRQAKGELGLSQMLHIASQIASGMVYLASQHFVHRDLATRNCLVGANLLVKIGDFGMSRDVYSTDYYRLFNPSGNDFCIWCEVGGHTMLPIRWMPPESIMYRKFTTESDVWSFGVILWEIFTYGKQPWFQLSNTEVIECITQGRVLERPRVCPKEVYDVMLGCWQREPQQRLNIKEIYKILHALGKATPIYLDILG

Turning to `C[C@@H]1CCc2ncc(F)cc2[C@H]2CCCN2c2nc3c(cnn3cc2F)C(=O)N1` [Example 1], the IC50 on TRKa amounted to 0.62 nM; on TRKA(G595R) it was 2.5 nM; on TRKC(G623R), 3.7 nM; with Ba/F3 EVT6-NTRK3-G623R (BaF3, 72 h), 190 nM; in the series with Ba/F3 LMNA-NTRK1-G595R (BaF3, 72 h), 13 nM; with Ba/F3 LMNA-NTRK1-G667C (BaF3, 72 h) it was 5.9 nM. Besides, the intrinsic clearance (microsomal CLint) at 1 μM in series [1] is 170 µL/min/mg; in [2], 189 µL/min/mg; in series [3], 82.7 µL/min/mg. For the same molecule, the half-life at 1 μM came out at 8.17 min in series [1], 7.35 min in [2] and 16.8 min in series [3]. For the same molecule, the figures for the “% Remaining(45 min)” value in [1], in series [2] and in series [3] were 4.24%, 3.30% and 16.15%, respectively.

Regarding `C[C@H]1Nc2ccn3ncc(c3n2)C(=O)N[C@H]2C[C@H](C2)Oc2ncccc21` [Example 4, (3^1S,3^3S,6^3E,6^4E,8R)-8-methyl-2-oxo-4,7-diaza-6(3,5)-pyrazolo[1,5-a]pyrimidine-1(2,3)-pyridine-3(1,3)-cyclobutylcyclooctane-5-one], the IC50 at TRKa was 320 nM; at TRKA(G595R), over 1000 nM; at TRKC(G623R), over 1000 nM; in the series on Ba/F3 EVT6-NTRK3-G623R (BaF3, 72 hours, CTG) it was over 1000 nM; in the series with Ba/F3 LMNA-NTRK1-G595R (BaF3, 72 hours, CTG) it was over 1000 nM; with Ba/F3 LMNA-NTRK1-G667C (BaF3, 72 hours, CTG) it was over 1000 nM.

In the case of `C[C@H]1Nc2nc3c(cnn3cc2F)C(=O)NC2CC(C2)Oc2ncccc21` [Example 5, (3^1S,3^3S,6^3E,6^4E,8R)-6^6-fluoro-8-methyl-2-oxo-4,7-diaza-6(3,5)-pyrazolo[1,5-a]pyrimidine-1(2,3)-pyridine-3(1,3)-cyclobutylcyclooctane-5-one], the IC50 on TRKa was 127 nM; at TRKA(G595R) it was 561 nM; on TRKC(G623R) it was over 1000 nM; with Ba/F3 EVT6-NTRK3-G623R (BaF3, 72 hours, CTG) it was over 1000 nM; in the series on Ba/F3 LMNA-NTRK1-G595R (BaF3, 72 hours, CTG), over 1000 nM; in the series on Ba/F3 LMNA-NTRK1-G667C (BaF3, 72 hours, CTG), over 1000 nM.

`C[C@H]1Nc2ccn3nc(F)c(c3n2)C(=O)N[C@H]2C[C@H](C2)Oc2ncc(F)cc21` [Example 6, (3^1S,3^3S,6^3Z,6^4E,8R)-1^5,6^2-difluoro-8-methyl-2-oxo-4,7-diaza-6(3,5)-pyrazolo[1,5-a]pyrimidine-1(2,3)-pyridine-3(1,3)-cyclobutylcyclooctane-5-one]: the IC50 at TRKa is 0.52 nM; on TRKA(G595R), 2.9 nM; at TRKC(G623R), 8.2 nM; in the series on Ba/F3 EVT6-NTRK3-G623R (BaF3, 72 hours, CTG) it was 536 nM; with Ba/F3 LMNA-NTRK1-G595R (BaF3, 72 hours, CTG) it was 116 nM; in the series with Ba/F3 LMNA-NTRK1-G667C (BaF3, 72 hours, CTG), 40 nM.

Regarding `C[C@@H]1CCc2ncc(F)cc2[C@H]2CCCN2c2ccn3ncc(c3n2)C(=O)N1` [LOXO-195, reference compound], the IC50 is 145 nM in the series on Ba/F3 EVT6-NTRK3-G623R (BaF3, 72 hours, CTG); 12 nM in the series with Ba/F3 LMNA-NTRK1-G595R (BaF3, 72 hours, CTG); 6.3 nM with Ba/F3 LMNA-NTRK1-G667C (BaF3, 72 hours, CTG). Also, the CLint in [1] was 82.65 µL/min/mg. Also, the half-life at 1 μM amounted to 16.8 min in [1], 9.12 min in series [2] and 7.45 min in series [3]. For the same molecule, the “% Remaining(45 min)” value in series [1] came to 16.23%; in series [2], 4.88%; in series [3], 1.98%. In addition, the intrinsic metabolic clearance (microsomal CLint) at 1 μM worked out at 152 µL/min/mg in [2] and 186 µL/min/mg in series [3].

The term microsomal CLint denotes the rate of metabolic loss divided by the concentration. A high value points to faster metabolism. The half-life is the time in which the quantity being followed falls by half. A low value points to fast loss.
